Data published in US20240285594A1, “COMPOSITIONS AND METHODS FOR TREATING PAIN IN ANIMALS” (North Carolina State University, priority 2023, published 2024).
“And” between values parts separate entries of the source, which are not always exact repeats. Equal entries are not always repeated. “Also recorded” adds a separate entry of the source. Where two headings read alike, the source gives them in different places.

What was measured:
cortisol = assay: Serum cortisol after surgical or sham castration of piglets (Part I, physiological assessment); type: in vivo
Method: A total of 197 Large White×Duroc cross male piglets from 35 litters were enrolled in the study (Table 1). Piglets were individually identified using ear tags (Allflex Global Piglet ear tags, Allflex Livestock Intelligence, Madison, WI), weighed and randomly allocated to one of eight treatment groups (FIG. 1).
Lidocaine was buffered by mixing 2 ml of 8.4% Sodium Bicarbonate to 20 ml of 2% lidocaine HCl injectable solution to achieve a pH of 6.8 (Lidocaine Hydrochloride, Covetrus, Dublin, Ohio, US). […] Piglets were held by both rear legs by one caretaker with the abdomen facing the individual administrating treatment. Buffered lidocaine was injected intra-inguinally (Picture 1) by a second caretaker using a ½ inch needle (Ideal® D3 20 Gauge, Neogen, Lansing, MI) inserted into a syringe (Prima Tech® 2 cc Bottle Mount Vaccinator, Prima Tech USA, Kenansville, NC). A total of 1.5 ml of buffered lidocaine per injection site was administered intramuscularly (IM) into each inguinal canal (left and right) at a 40-degree angle 5-7 cm from the scrotum and 2-3 cm from the abdominal wall. Piglets enrolled in the control treatment (C, S, CF, SF−T1: (C) Castration plus physiological saline (IM and IN; n=25); T2: (S) Sham plus physiological saline (IM and IN; n=25); T5: (CF) Castration plus flunixin (IN; n=25); T6: (SF) Sham plus flunixin (IN; n=24)) were handled in an identical manner and 1.5 ml of sterile saline was injected in the same two locations as described previously.
Immediately following intra-inguinal injection, piglets enrolled in the FM treatment groups were held in sternal recumbency by one individual and 2.2 mg/kg (Banamine®, Merck Animal Health, Madison, NJ, US) was administered in one nostril using was a MAD® nasal intranasal mucosal atomization device (Telefex Incorporated, Wayne, PA, US) attached to a Prima Tech® 0.5 cc bottle mount vaccinator. The same individual administered the treatment by gently holding the piglet's snout using their non-dominant hand to steady the head and administered the drug with the other hand. Piglets in the control group were handled in the same manner in an equivalent volume of 0.2 ml of sterile saline was administered as described above.
Castration was performed by one trained caretaker from the farm. Piglets were picked up, individually held by both hind legs with head down, and two vertical incisions were made through the skin of the scrotum over each testicle using a scalpel blade. Once the incisions were made, testicles were exposed, spermatic cords cut, and testicles were completely removed by traction. A sham castration was performed to mimic similar handling conditions in which piglets were picked up, held in the same manner, and had pressure applied to the scrotal area by the same individual responsible for castration.
Blood was collected 24 h prior to (−24 h), 1 h (1 h), and 24 h post castration (24 h, FIG. 2). Blood samples were collected using the technique described in other studies. The orbital sinus cavity was punctured using an Excel® disposable hypodermic needle 20G (Exel International, Quebec, Canada) and deposited into a 4 ml BD® red vacutainer serum tube (Med Vet International, Mettawa, IL). All tubes were maintained in a cooler and centrifuged (2,000×g for 15 min at 4° C.) no more than eight hours post-collection to separate serum. […]
Serum cortisol concentrations were quantified using a commercially available EIA kit (Arbor Assays DetectX Cortisol EIA Kit, Product #K003). […]

[1] = IM flunixin in pigs; cited from earlier work
prostaglandin E2 (PGE2) = assay: Serum PGE2 after castration of piglets (Example 3); type: in vivo
Method: Pairwise comparisons of treatments at −24 h: P≥0.77. […] Pairwise comparisons of treatments at 24 h post-castration: P≥0.11.
The objective of this study was to evaluate the effects of intranasal flunixin and intra-inguinal lidocaine application on the castration associated inflammatory response in piglets, as described in Example 1.

[2] = cited from earlier work; for mitigation of pain associated with castration (and tail docking): earlier published studies in pigs, route as in the sentence
[3] = Plasma and interstitial fluid concentrations after intravenous or intranasal flunixin meglumine in cattle; type: in vivo
Method: FIG. 10: Plasma concentration versus time curve for individual cattle (n=4) following a single intravenous dose of flunixin meglumine at 2.2 mg/kg. Samples were simultaneously collected from the opposite jugular vein (via pre-placed catheter) and a pre-placed portal vein catheter. Some variability is observed between sampling sites (jugular vs. portal vein) but overall concentrations and trend are similar over time.
FIG. 11: Plasma concentration versus time curve for individual cattle (n=4) following a single intranasal dose of flunixin meglumine at 2.2 mg/kg. Samples were simultaneously collected from a jugular vein catheter and a pre-placed portal vein catheter. Overall, plasma concentrations are lower following intranasal administration, and the jugular sampling site overestimates systemic concentrations especially following the first 1 hour after administration.
FIG. 12: Interstitial fluid concentration versus time curve for individual cattle (n=4) following a single intranasal (n=2) or intravenous (n=2) dose of flunixin meglumine at 2.2 mg/kg. Samples were collected using an in vivo ultrafiltration collection device and represent tissue unbound concentrations of flunixin. There is systemic absorption following both intravenous and intranasal routes of administration, with tissue concentrations of flunixin detected for at least 24 hours following a single dose.

in vivo = details: female, Yorkshire cross, pig, plasma, 2.2 mg/kg
Method: (§1) Six female Yorkshire cross grower pigs approximately 8 weeks of age with no history of flunixin administration in a 30-day period were sourced from a production farm and enrolled in the study. The pigs were determined to be healthy by veterinary physical examination and pigs initially weighed between 18.0-22.0 kg. The pigs were individually housed in climate-controlled rooms with a 12:12 light dark cycle at the North Carolina State University College of Veterinary Medicine to prevent cross contamination between pigs and damage to jugular catheters. The pens had non-slip flooring, allowed the pigs to move freely, provided enrichment, and were cleaned at least twice daily. The pigs had ad libitum access to water via a nipple drinker and were fed 0.5 quarts of Nature's Match twice daily. […] From the time of arrival until the end of the study, the pigs were monitored at least twice daily for general appearance, attitude, appetite, and wellbeing.
(§2) To facilitate jugular catheter placement, the pigs were sedated with Telazol®, reconstituted with ketamine and xylazine as previously described, intubated, and maintained on gas isoflurane anesthesia. A 22-gauge, 10 cm intravenous catheter (MILA, International, Inc., Florence, KY, USA) was placed into the jugular vein using sterile technique. It was sutured in place with 3-0 nylon and covered in Ioban™ (3M, St. Paul, MN, USA) to prevent damage. The pigs wore custom jackets throughout the study to protect the catheters and an extension set was attached to allow for easy catheter access and restraint-free blood collection.
(§3) All pigs were randomized to determine the first administration route. Group 1 (n=3 pigs) and Group 2 (n=3 pigs) were used in a cross-over design and received 2.2 mg/kg flunixin (Banamine®-S, Merck Animal Health, Madison, NJ, USA) by either the IM or IN route. Following a 5-day washout period, the pigs were administered 2.2 mg/kg flunixin via the opposite route. IN administration was completed using a MAD600 MADgic laryngo-tracheal mucosal atomization device (Teleflex Medical, Morrisville, NC, USA). The luer lock syringe was attached to this device and drug was placed into the nostril. Before administration, 0.22 mL of the drug was added to the device to account for dead space volume. After the IN dose, pigs were encouraged to keep their heads raised for approximately 10 seconds to prevent leakage of the drug out of the nasal cavity. Intramuscular administration was performed in the omotransversarius muscle using a 20G needle.
(§4) Blood samples were collected at 0 (pre-treatment), 0.16, 0.33, 0.5, 0.75, 1, 1.5, 2, 3, 4, 6, 8, 12, 18, 24, 36, 48, and 60 hours post treatment. To avoid heparin contamination in samples, at least 1 mL of blood was collected as a purge sample before 1-2 mL of blood was collected and placed into lithium heparin tubes (BD Vacutainer, Franklin Lakes, NJ, USA). The purge blood was injected back into the catheter before the catheter was flushed with 3-4 mL of heparinized saline to prevent coagulation. The blood tubes were placed on ice for no more than 1 hour before they were processed. Plasma was separated by centrifugation at 3500×g for 10 minutes at 4° C., equally split between two cryovials, mixed, and stored at −80° C. until analysis.
(§5) To prepare samples, 100 μL of plasma was pipetted into a clean borosilicate glass tube (disposable culture tubes, CWR). To pretreat the plasma, 500 μL of 4% phosphoric acid prepared in water was added to each tube. Solid phase extraction was performed on an oasis prime HLB 96 well μElution plate (Waters Corporation, Milford, MA, USA). The plate was prepared by conditioning the plate with 500 μL of methanol followed by 500 μL of ultrapure water.

[4] = Cross-over plasma pharmacokinetics of intranasal versus intramuscular flunixin;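 note: grower pigs about 8 weeks old weighing 18.0-22.0 kg, randomized cross-over of both routes separated by a 5-day washout, blood taken via jugular vein catheter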
Method: as §1, §2, §3, §4, §5

[5] = intramuscular 2.2 mg/kg, six grower pigs, plasma, median
[6] = intranasal 2.2 mg/kg, six grower pigs, plasma, median

For `Cc1c(Nc2ncccc2C(=O)O)cccc1C(F)(F)F` [flunixin meglumine], the cortisol concentrations (cortisol; 1 h, sham castrated piglets (SF and SLF)) was “lowest cortisol concentrations”, the cortisol concentrations (cortisol; 1 h post-castration, castrated piglets, compared to C (saline) and CL, FM 2.2 mg/kg intranasal, buffered lidocaine intra-inguinal, listed as FM) was “lower cortisol concentrations; also recorded: decreased cortisol concentrations; also recorded: effectively reduce” and the cortisol concentrations (cortisol; 24 h post-castration, between treatments) was “not effective”. The label withdrawal time [1] was 12 days, the “serum PGE2 concentrations” value (prostaglandin E2 (PGE2); 1 h post-castration, castrated and non-castrated piglets, flunixin 2.2 mg/kg IN vs piglets without the drug) was “lower serum PGE2 concentrations; also recorded: effective” and the “serum PGE2 concentrations” value (prostaglandin E2 (PGE2); 24 h post castration, vs other treatments) was “no observed differences; also recorded: not effective”. The “numerical decrease of cortisol concentrations” value ([2]; FM topically 24 h prior to castration vs saline-treated piglets, not significant) was “more than 30%”, the “mitigation of pain associated with castration (and tail docking)” value [2] was “effective” and the “mitigation of pain associated with castration (and tail docking)” value ([2]; listed as flunixin) was “more effective; also recorded: superior”. For the same compound, the total pain scores ([2]; immediately post castration, transdermal flunixin treated piglets, castrated piglets 4.9, video observation) was 3.1, the cortisol concentrations ([2]; intramuscular FM, 2 h post-castration, vs castrated non-treated control, Nixon 2021) was “decreased cortisol concentrations” and the rescue analgesia intervention ([2]; transdermal FM 24 h before castration, control pigs 54%) was 29%. The plasma concentrations ([3]; cattle (n=4), single intranasal dose 2.2 mg/kg, compared with intravenous) was “lower”, the “time tissue (interstitial fluid, unbound) concentrations were detected” value ([3]; cattle, single intranasal or intravenous dose 2.2 mg/kg) was “at least 24 hours” and the AUC(0-inf) (in vivo; im) was 6900 ng·h/mL. It also gave an AUC(0-t) (in vivo; im) of 6900 ng·h/mL, a CL/F (in vivo; im) of 5 mL/min/kg and a Cmax (in vivo; im) of 4000 ng/mL. It also gave a Tmax (in vivo; im) of 12 min, a Vd/F (in vivo; im) of 3.2 L/kg and an AUC(0-t) (in vivo; inhaled or intranasal) of 4800 ng·h/mL. The CL/F (in vivo; inhaled or intranasal) was 8.33 mL/min/kg, the Cmax (in vivo; inhaled or intranasal) was 2700 ng/mL and the Tmax (in vivo; inhaled or intranasal) was 12 min. For the same compound, the Vd/F (in vivo; inhaled or intranasal) was 5.4 L/kg, the bioavailability (in vivo; other: intranasal) was 88.5% and the “AUCinf of IM administration” value ([4]; 2.2 mg/kg IM, individual grower pig (Pig # 1-6, one line per pig), unit not given) was 7.63 and 6.25 and 7.82 and 8.54 and 5.29 and 4.99. The “AUCinf of IN administration” value ([4]; 2.2 mg/kg IN, individual grower pig (Pig # 1-6, one line per pig), unit not given) was 2.98 and 8.90 and 7.07 and 4.98 and 4.74, the “AUC Extrap” value [4, 5] was 0.3% and the λz [4, 5] was 0.1 h⁻¹. The “AUC Extrap” value [4, 6] was 0.5%, the AUCinf [4, 6] was 4900 ng·h/mL and the HLλz [4, 6] was 7.4 h. For the same compound, the λz [4, 6] was 0.09 h⁻¹.
